Experiments:
[1] = system: PD-L1 on SK-N-SH, SH-SY5Y and IMR-32 cells; experiment: PD-L1 expression after IFNγ stimulation, human neuroblastoma cell lines; format: cell-based
From the text: (§1) The expression of PD-L1 on human neuroblastoma cell lines SY5Y and SK-N-SH (non-NMYC amplified) had similar changes with exposure to IFNγ. […] Representative tumors were dissected from naïve mice (I, V, IX, and XIII) and from mice after receipt of Id2kd vaccine (II, VI, X, and XIV), Id2kd plus PD-L1 antibody (III, VII, XI, and XV), and Id2kd plus CTLA-4 antibody (IV, VIII, XII, and XVI). Hematoxylin and eosin (H&E) staining (I±VIII) and immunofluorescence double staining (IX-XVI) for CD3 and PD-L1 were performed. The nuclei were stained with 4′,6-diamidino-2-phenylindole (DAPI). Representative micrographs from each cohort are shown. Areas of necrotic tissues are marked with black broken lines and coincide with areas of inflammatory cell infiltrates. Panel 1 (I-IV) and panel 3 (IX-XII) are 40× and 100× original magnification, respectively. […]
(§2) FIGS. 5A and 5B show PD-L1 is expressed at 3.7-fold-lower levels on aggressive mouse neuroblastoma cell line AgN2a, as evidenced by flow cytometry (FIG. 5A) and real-time quantitative PCR (RT-qPCR) (p<0.005, Student t test; FIG. 5B). […]
(§3) A possible explanation may be the differential constitutive expression of PD-L1 by tumor cells. […] The response of PD-L1 expression to IFNγ stimulation was also determined.

[2] = system: PD-L1 on Neuro2a and AgN2a cells; experiment: PD-L1 surface expression after IFNγ stimulation, mouse neuroblastoma cell lines (flow cytometry); format: cell-based
From the text: as §1, with “infiltrates.” for “infiltrates. Panel 1 (I-IV) and panel 3 (IX-XII) are 40× and 100× original magnification, respectively.”
as §2
Cells from mouse tumor digests and mouse splenocytes were stained with the fluorescently conjugated antibodies described above. […] Data were analyzed using the FlowJo program (Treestar, Ashland, Oreg.). […]
as §3

ApoE = experiment: IFNγ ELISA of splenocytes cocultured with Myc-suppressed irradiated B16 cells with ApoE agonist or anti-ApoE antibody; format: cell-based, mouse
Method: IFNγ was measured at 48 hours of culture (pg/ml). S: splenocytes; NS: naïve splenocytes; VS: vaccinated splenocytes; S1S: splenocytes dissected from survivor mouse; Treated: B16 cells expose to 0.25 μM BET/0.25 μM JQ1 for 4 days.
IFNγ production was quantified by ELISA at 48 hours.

| Substance | PD-L1 up-regulation ([1]; MYCN-amplified IMR-32, highest concentrations tested) | PD-L1 expression ([1]; SK-N-SH and SH-SY5Y (non-MYCN amplified), increasing doses) | PD-L1 up-regulation ([2]; AgN2a, highest concentrations tested) | PD-L1 surface expression ([2]; Neuro2a, 24 hours of stimulation) | IFNγ production, fold reduction (ApoE; 0.3, 3 and 9 μM, 48 hours, ELISA, FIG. 10A) | IFNγ secretion from splenocytes (ApoE; 48 hours of culture, FIGS. 10A and 10B) | TNFα and Rantes production (ApoE; co-culture with vaccinated splenocytes) |
| --- | --- | --- | --- | --- | --- | --- | --- |
| IFNγ | failed to up-regulate PD-L1 | rises markedly | failed to up-regulate PD-L1 | increase in a dose-dependent manner |  |  |  |
| LRVRLASHLRKLRKRLL (SEQ ID NO: 1) (COG133) [ApoE agonist peptide fragment] |  |  |  |  | 6 fold reduction | significantly suppressed in a dose dependent manner | repressed |
